The subject of test [1] is Staphylococcus aureus (Smith). Put plainly: In vivo efficacy of Compound 70 in mouse models. To be noted: mice, 10^8 CFU/mouse, regimen 1 (t=0). How it is done:
(§1) Swiss Webster mice, ca. 20 g each, were infected with Staphylococcus aureus (Smith strain) by the intraperitoneal route. Test compounds (2, 4, 5, 6, 7, 8, 10, 12) were dissolved in 10% dimethylsulfoxide in peanut oil to a concentration of 2 mg/ml. Vancomycin was used as positive control drug (i.e., protection from lethal infection). Fifteen minutes after infection, test compounds, vancomycin, or vehicle alone were given intraperitoneally to groups of five mice each. Animals were monitored for three days, and the number of mice surviving was tabulated for each treatment.
(§2) Using the same basic procedure as described above, the in vivo efficacy of Compound 70 was also evaluated at various doses in mice infected with S. aureaus (Smith), MRSA 1094, Enterococcus faecalis, or vancomycin-resistant Enterococcus faecalis strain VRE 700802. […] Negative controls were mice infected that received no treatment. Mucin was employed as an adjuvant to facilitate bacterial infection in mice, where indicated.

In test [2] the test system is Enterococcus faecalis (ATCC 29212). The test is described as follows: In vivo efficacy of Compound 70 in mouse models. The following applies: mice, 3x10^7 CFU/mouse + 5% Mucin. As to the method: as §1, §2
Test [3] has as its system enterococci or staphylococci strains, including MRSA and VRE strains. The test is described as follows: In vivo efficacy of Compound 70 in mouse models, overall statement. To be noted: mice; administration from distant parenteral sites (i.e., iv, sc, or im). As to the method:
as §2

SMILES strings stand for the structures. Marks after values point to notes of the source that are not given here.

Consider 1 molecule from EP1401829B1, “NOVEL HETEROCYCLIC ANTIBACTERIAL COMPOUNDS” (Microbiotix, Inc., priority 2001, dated 2002).

As for `CCc1cc(Nc2cc(=O)n(CCCCN3CCN(c4c(F)cc5c(=O)c(C(=O)O)cn(C6CC6)c5c4F)CC3C)c(=O)[nH]2)ccc1C` (stereo not shown) [Compound 70, 3-{4-[1-(1-cyclopropyl-3-carboxy-4-oxo-6,8-difluoro-7-quinolyl)-3-methyl-4-piperazinyl]butyl}-6-(3-ethyl-4-methylanilino)uracil], the “% Survival at 72 hours” value is on record as 0% (0/5) in test [1] (dose 3.125 mg/kg); 40% (6/15) in test [1] (dose 12.5 mg/kg); 100% (20/20)** in test [1] (dose 25 mg/kg); 100% (10/10)** in test [1] (dose 50 mg/kg); 40% (2/5) in test [2] (dose 25 mg/kg, regimen 1 (t=0)); 40% (2/5) in test [2] (dose 25 mg/kg, regimen 2 (t=0,2)). Further, the “% Survival at 72 hours” value in test [2] (dose 50 mg/kg, regimen 1 (t=0)) is 60% (3/5); in test [2] (dose 50 mg/kg, regimen 2 (t=0,2)) it was 80% (8/10)**; in test [2] (dose 75 mg/kg, regimen 1 (t=0)) it was 80% (4/5). Further, in test [3], the “activity against intra-peritoneal challenge” value is reported as “dose-related activity”.
